Measurements from patent EP1902732A1, “PROPHYLACTIC/THERAPEUTIC AGENT FOR HER2-EXPRESSING CANCER” (Takeda Pharmaceutical Company Limited, priority 2005, dated 2006).

What was measured:
[1] = test system: MAPK; assay: Western blotting of phosphorylated MAPK in BT-474 cells; format: cell-based, human; conditions: Example 2, 4-fold dilution series from 1 µmol/L in 5 steps, 2 hours
Experimental: (§1) Human HER2-expressing human breast cancer cell line BT-474 (purchased from American Tissue Culture Collection (ATCC)) was seeded into a 24-multiwell plate (BT-474: 1.2 x 10^5 cells/well), and cultured overnight in a carbon dioxide gas incubator (5% CO2, 37°C). A 4-fold dilution series of a mitochondrial respiratory chain complex inhibiting compound (complex I: rotenone, complex III: antimycin, complex V: oligomycin: Wako Pure Chemical Industries) was added starting from a final concentration of 1 µmol/L in 5 steps while continuing culture. After 2 hours, the broth was removed, and the cells were lysed with an SDS sample buffer (200 µL). Western blotting analysis was performed as follows. Specifically, this cell lysate (8 µL) was separated by an SDS-PAGE method (gel concentration: 7.5-15%) (Analytical Biochemistry, No. 166, pp. 368-379, 1987), and transferred to a nitrocellulose membrane (BioRad). Then, an antibody specific to phosphorylated HER2 (Cell signaling technology, Code# 2244), an anti-phosphorylated Akt antibody specific to downstream antiapoptotic signal transducing molecule Akt (Cell signaling technology, Code# 9271) and an anti-phosphorylated MAPK antibody specific to downstream proliferation signal transducing molecule MAPK (Cell signaling technology, Code# 9101) were used to detect the antibody with an ECL system (Amersham) to quantify the amount of phosphorylated protein by an image analysis.
(§2) Human HER2-expressing human cancer cell line BT-474 (purchased from ATCC) was seeded into a 24-multiwell plate (1.2 x 10^5 cells/well) and cultured overnight in a carbon dioxide gas incubator (20% O2, 5% CO2, 37°C). A 3-fold dilution series of metformin that activates AMPK (The Journal of Biological Chemistry, Vol. 279, No. 42, pp. 43940-43951, 2004) was added starting from a final concentration of 15 mmol/L in 5 steps while continuing culture. Two hours later, the broth was removed and the cells were lysed with an SDS sample buffer (200 µL). This cell lysate (8 µL) was separated by an SDS-PAGE method (gel concentration: 7.5-15%) (Analytical Biochemistry, No. 166, pp. 368-379, 1987). Then, western blotting analysis was performed in the same manner as in Example 1 to quantify phosphorylated HER2, phosphorylated Akt and phosphorylated MAPK.

[2] = test system: Akt; assay: Western blotting of phosphorylated Akt in BT-474 cells; format: cell-based, human; conditions: Example 2, 4-fold dilution series from 1 µmol/L in 5 steps, 2 hours
Experimental: as §1, §2

## antimycin
[1]
  MAPK phosphorylation: suppressions of Akt and MAPK phosphorylations were also confirmed
[2]
  Akt phosphorylation: suppressions of Akt and MAPK phosphorylations were also confirmed
